We go through 16 molecules from US7157455B2, “4-Aminopyrimidine-5-one derivatives” (Hoffmann-La Roche Inc., priority 2003, dated 2007).

One series relates to HCT116 cells. The experiment in a line: Tetrazolium dye proliferation assay (MTT assay). The note with it: Homo sapiens, HCT-116; 90% inhibition of cell proliferation, HCT116 colorectal carcinoma cell line. The class given is cell-based. The protocol:
The cell line used was HCT116, a colorectal carcinoma cell line obtained from the American Type Cell Culture Collection (ATCC; Rockville, Md.). The cells were grown in McCoy's 5A medium supplemented with 10% FCS and L-glutamine.
Cells were plated at the appropriate seeding density to give logarithmic growth over the course of the assay in a 96-well tissue culture plate. Plates were incubated overnight at 37° C. in a humidified incubator with 5% CO2. The next day, test compounds were serially diluted to four times the final concentration in the appropriate medium containing 1.2% DMSO. One-fourth final volume of each dilution was added in duplicate to the plates containing cells. The same volume of 1.2% DMSO in medium was added to a row of “control wells” such that the final concentration of DMSO in each well was 0.3%. Wells to which no cells were added served as the “blank.” Wells to which no inhibitor was added served as “no inhibitor control.” The plates were) returned to the incubator, and at set time points (determined by their growth curves) plates were analyzed as described below.
3-(4,5-dimethylthiazole-2-yl)-2,5-diphenyl-2H-tetrazolium bromide (thiazolyl blue; MTT; Sigma) was added to each well to yield a final concentration of 1 mg/ml. Plates were returned to the incubator for 2.5–3 hours at 37° C. The MTT-containing medium was removed and the resulting formazan metabolite was solubilized in 100% ethanol with shaking for 15 minutes at room temperature. Absorbance readings were taken in a microtiter plate reader (Dynatech and Molecular Devices plate readers were used interchangeably) at a wavelength of 570 nm with a 650 nm reference. Percent inhibition (% INH) is calculated by subtracting the absorbance of the blank well from all wells, then subtracting the ratio of the average absorbance of each test duplicate (SAVE) by the average of the controls (CAVE) from 1.00. The final number is then multiplied by 100(% INH=(1.00−SAVE/CAVE)×100).
A general note: Tetrazolium dyes change colour on reduction, which living cells bring about.

The next series addresses human cyclin E-CDK2 (Homo sapiens, UniProt P24941). Briefly: FlashPlate kinase assay, IC50 measurement, cyclin E-CDK2. The series is classed as biochemical. The protocol:
To determine inhibition of Cdk4, Cdk2 and Cdk1 activity, kinase assays were conducted using FlashPlate™ assays (NEN™-Life Science Products). FlashPlate assays were performed using recombinant human cyclin B-CDK1, human cyclin E-CDK2 or human cyclin D1-CDK4 complexes. GST-cyclinE (GST-cycE), CDK2, GST-cyclinB (GST-cycB), CDK1, GST-CDK4 and cyclin D1 (cycD1) cDNA clones in baculovirus vectors were provided by Dr. W. Harper at the Baylor College of Medicine, Houston, Tex.
(§1) The expression of the 62 Kd protein was under the control of an IPTG inducible promoter in an M15 E. coli strain. Cells were lysed by sonication and purification was carried out by binding lysates at pH 8.0 to a Ni-chelated agarose column pretreated with 1 mM imidazole. The resin was then washed several times with incrementally decreasing pH buffers to pH 6.0, and eluted with 500 mM imidazole. Eluted protein was dialysed against 20 mM HEPES pH 7.5, 30% glycerol, 200 mM NaCl, and 1 mM DTT. Purified Rb fusion protein stocks were quantitated for protein concentration, aliquoted, and stored at −70° C.
(§2) For all three kinase assays reported herein, 96-well FlashPlates were coated with Rb protein at 10 μg/ml, using 100 μl per well. Plates were incubated at 4° C. overnight or at room temperature for 3 hours on a shaker. To control for nonspecific phosphorylation, one row of wells was coated with 100 μl/well coating buffer (20 mM HEPES, 0.2 M NaCl). Plates were then washed twice with wash buffer (0.01% Tween 20 in phosphate-buffered saline). Compounds to be tested (“test compounds”) were added to the wells at 5× final concentration. Reactions were initiated by immediate addition of 40 μl reaction mix (25 mM HEPES, 20 mM MgCl2, 0.002% Tween 20, 2 mM DTT, 1 μM ATP, 4 nM ^33P-ATP) and a sufficient amount of enzyme to give counts that were at least 10-fold above background. Plates were incubated at room temperature on a shaker for 30 minutes. Plates were washed four times with the wash buffer, sealed, and counted on the TopCount scintillation counter (Packard Instrument Co., Downers Grove, Ill. The percent inhibition of Rb phosphorylation, which is a measure of the inhibition of CDK activity, was determined according to the following formula:
[formula] where “test compound” refers to the average counts per minute of the test duplicates, “nonspecific” refers to the average counts per minute when no CyclinD/Cdk4, etc., was added, and “total” refers to the average counts per minute when no compound was added. […] B: Ki Measurement

The next series addresses human cyclin B-CDK1 (Homo sapiens, UniProt P06493). The experiment in a line: FlashPlate kinase assay, IC50 measurement, cyclin B-CDK1. The series is classed as biochemical. As to conditions: Rb protein substrate, 1 μM ATP. The protocol:
(§3) To determine inhibition of Cdk4, Cdk2 and Cdk1 activity, kinase assays were conducted using FlashPlate™ assays (NEN™-Life Science Products). FlashPlate assays were performed using recombinant human cyclin B-CDK1, human cyclin E-CDK2 or human cyclin D1-CDK4 complexes. GST-cyclinE (GST-cycE), CDK2, GST-cyclinB (GST-cycB), CDK1, GST-CDK4 and cyclin D1 (cycD1) cDNA clones in baculovirus vectors were provided by Dr. W. Harper at the Baylor College of Medicine, Houston, Tex. Proteins were co-expressed in High Five™ insect cells and the complex was purified on glutathione Sepharose resin (Pharmacia, Piscataway, N.J.) as previously described (Harper, J. W. et al. Cell 1993, 75, 805–816). A 6×-Histidine tagged truncated form of retinoblastoma (Rb) protein (amino acid 386–928) was used as the substrate for the cycD1-CDK4, cycB-CDK1 and the cycE-CDK2 assays (the expression plasmid was provided by Dr. Veronica Sullivan, Department of Molecular Virology, Roche Research Centre, Welwyn Garden City, United Kingdom). The Rb protein is a natural substrate for phosphorylation by CDK4, CDK2 and CDK1 (see Herwig and Strauss Eur. J. Biochem. Vol. 246 (1997) pp. 581–601 and the references cited therein).
as §1, §2
(§4) [formula] where “test compound” refers to the average counts per minute of the test duplicates, “nonspecific” refers to the average counts per minute when no CyclinD/Cdk4, etc., was added, and “total” refers to the average counts per minute when no compound was added. The IC50 value is the concentration of test compound that reduces by 50% the protein-kinase induced incorporation of the radiolabel under the test conditions described. B: Ki Measurement

The target of another series is human cyclin D1-CDK4 (Homo sapiens, UniProt P11802). The experiment in a line: FlashPlate kinase assay, IC50 measurement, cyclin D1-CDK4. The series is classed as biochemical. The note with it: Rb protein substrate, 1 μM ATP. The protocol:
as §3, §1, §2, §4

[1] abbreviates: Rb protein substrate, 1 μM ATP, read-out: CDK2 IC50.
Setting [2] is: Rb protein substrate, 1 μM ATP, unit inferred, read-out: CDK2 IC50.

Where two headings read alike, the source gives them in different places.

human cyclin B-CDK1, sequence (P06493 whole entry): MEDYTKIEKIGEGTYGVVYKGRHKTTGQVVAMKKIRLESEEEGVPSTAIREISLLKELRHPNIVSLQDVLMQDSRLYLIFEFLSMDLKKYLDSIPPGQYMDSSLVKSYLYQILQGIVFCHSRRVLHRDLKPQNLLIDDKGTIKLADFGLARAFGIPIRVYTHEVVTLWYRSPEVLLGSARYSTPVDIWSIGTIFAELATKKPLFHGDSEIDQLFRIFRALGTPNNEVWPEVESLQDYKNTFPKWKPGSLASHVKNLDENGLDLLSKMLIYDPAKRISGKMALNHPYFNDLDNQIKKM
human cyclin B-CDK1, sequence (P14635 whole entry partner): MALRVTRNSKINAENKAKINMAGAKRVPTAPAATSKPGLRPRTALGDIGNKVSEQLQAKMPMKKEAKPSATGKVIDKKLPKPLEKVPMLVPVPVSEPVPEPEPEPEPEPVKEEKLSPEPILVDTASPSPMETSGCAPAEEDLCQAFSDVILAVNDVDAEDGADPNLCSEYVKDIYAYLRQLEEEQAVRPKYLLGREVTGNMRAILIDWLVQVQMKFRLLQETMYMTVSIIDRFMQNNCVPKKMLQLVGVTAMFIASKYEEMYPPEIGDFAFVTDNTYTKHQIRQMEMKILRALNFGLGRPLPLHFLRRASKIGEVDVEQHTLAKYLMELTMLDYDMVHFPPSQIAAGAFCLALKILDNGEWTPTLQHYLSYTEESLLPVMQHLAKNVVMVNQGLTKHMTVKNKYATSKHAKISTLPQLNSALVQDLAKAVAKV
human cyclin D1-CDK4, sequence (P11802 whole entry): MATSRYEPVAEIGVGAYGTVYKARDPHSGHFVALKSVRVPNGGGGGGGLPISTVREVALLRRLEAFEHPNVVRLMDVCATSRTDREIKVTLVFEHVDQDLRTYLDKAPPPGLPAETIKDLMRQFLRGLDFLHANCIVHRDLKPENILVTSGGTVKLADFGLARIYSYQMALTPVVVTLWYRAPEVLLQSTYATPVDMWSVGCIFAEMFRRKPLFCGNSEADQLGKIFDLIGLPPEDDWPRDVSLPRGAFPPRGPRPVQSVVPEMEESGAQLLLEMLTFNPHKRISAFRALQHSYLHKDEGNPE
human cyclin D1-CDK4, sequence (P24385 whole entry partner): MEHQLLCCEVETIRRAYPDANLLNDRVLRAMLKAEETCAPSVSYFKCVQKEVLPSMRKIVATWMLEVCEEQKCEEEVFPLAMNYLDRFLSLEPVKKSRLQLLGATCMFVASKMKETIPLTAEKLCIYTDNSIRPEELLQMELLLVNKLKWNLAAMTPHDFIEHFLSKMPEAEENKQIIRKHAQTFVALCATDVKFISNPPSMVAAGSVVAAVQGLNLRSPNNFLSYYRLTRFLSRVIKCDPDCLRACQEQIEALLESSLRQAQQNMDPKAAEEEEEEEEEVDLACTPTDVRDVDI

One may read the melting point as the temperature of the solid-liquid transition. In turn, `COc1ccc(F)c(F)c1C(O)c1cnc(Cl)nc1Cl` (racemic) [Example 287, rac-(2,4-Dichloro-pyrimidin-5-yl)-(2,3-difluoro-6-methoxy-phenyl)-methanol] registered a melting point of 99 to 101 °C.

The IC90 is the concentration needed for an effect of 90%. Higher therefore signals weaker potency. Broadly, the IC50 is the concentration that gives 50% inhibition. Consider `COc1ccccc1C(=O)c1cnc(Nc2ccc(N3CCN(C(C)C)CC3)cc2)nc1N` [Example 8, [4-Amino-2-[4-(4-isopropyl-piperazin-1-yl)-phenylamino]-pyrimidin-5-yl]-(2-methoxy-phenyl)-methanone], for which the 90% effect level in the series with HCT116 cells (IC90) was put at 20900 nM. The 50% inhibitory concentration (IC50) amounted to 10000 nM on human cyclin E-CDK2 (setting [1]), 3560 nM on human cyclin B-CDK1 and 171 nM at human cyclin D1-CDK4.

Turning to `CCS(=O)(=O)c1ncc(C(=O)c2cc(F)ccc2OC)c(N)n1` [Example 48, (4-Amino-2-ethanesulfonyl-pyrimidin-5-yl)-(5-fluoro-2-methoxy-phenyl)-methanone], the melting point was in the range of 174 to 175 °C.

On to `COC(=O)N1CCCC(Nc2ncc(C(=O)c3ccccc3OC)c(N)n2)C1` (stereo not shown) [Example 54, 3-[4-Amino-5-(2-methoxy-benzoyl)-pyrimidin-2-ylamino]-piperidine-1-carboxylic acid methyl ester], for which the IC90 in the series with HCT116 cells was 6440 nM. Moreover, the IC50 at human cyclin E-CDK2 (setting [1]) is 713 nM; at human cyclin B-CDK1, 469 nM; against human cyclin D1-CDK4, 459 nM.

In turn, `CC[S+]([O-])c1ncc(C(=O)c2cc(F)ccc2OC)c(N)n1` (stereo not shown) [Example 163, (4-Amino-2-ethanesulfinyl-pyrimidin-5-yl)-(5-fluoro-2-methoxy-phenyl)-methanone] had a melting point of 150 to 152 °C.

As to `COc1ccc(F)cc1C(=O)c1cnc(NC2CCN(C(=O)OC(C)(C)C)CC2)nc1N` [Example 164, 4-[4-Amino-5-(5-fluoro-2-methoxy-benzoyl)-pyrimidin-2-ylamino]-piperidine-1-carboxylic acid tert-butyl ester], the melting point was 122 to 124 °C (dec.).

With `COc1cc(F)c(F)c(F)c1C(=O)c1cnc(NC2CCN(C(C)=O)CC2)nc1N` [Example 204, 1-[4-[4Amino-5-(2,3,4-trifluoro-6-methoxy-benzoyl)-pyrimidin-2-ylamino]-piperidin-1-yl]-ethanone], the 90% effect level in the series with HCT116 cells (IC90) was put at 2400 nM. Moreover, the IC50 on human cyclin E-CDK2 (setting [2]) was 51 nM; against human cyclin B-CDK1, 128 nM; at human cyclin D1-CDK4, 10 nM.

Regarding `COc1cc(F)c(F)c(F)c1C(=O)c1cnc(NC2CCN(S(C)(=O)=O)CC2)nc1N` [Example 207, [4-Amino-2-(1-methanesulfonyl-piperidin-4-ylamino)-pyrimidin-5-y]-(2,3,4-trifluoro-6-methoxy-phenyl)-methanone], the IC90 with HCT116 cells is 630 nM. Besides, the IC50 against human cyclin E-CDK2 came out at 2 nM; at human cyclin B-CDK1 it was 5 nM; against human cyclin D1-CDK4 it was 1 nM.

As for `COc1ccc(F)c(F)c1C(=O)c1cnc(NC2CCN(S(=O)(=O)CCCN3CCN(C)CC3)CC2)nc1N` [Example 228, (4-Amino-2-[1-[3-(4-methyl-piperazin-1-yl)-propan-1-sulfonyl]-piperidin-4-ylamino]-pyrimidin-5-yl)-(2,3-difluoro-6-methoxy-phenyl)-methanone], the IC90 with HCT116 cells was found to be 274 nM. The IC50 on human cyclin E-CDK2 (setting [2]) came out at 17 nM; on human cyclin B-CDK1, 39 nM; against human cyclin D1-CDK4, 1 nM.

`CS(=O)(=O)N1CCC(Nc2ncc(C(=O)c3ccccc3)c(N)n2)CC1` [Example 283, [4-Amino-2-(1-methanesulfonyl-piperidin-4-ylamino)-pyrimidin-5-yl]-phenyl-methanone] registered a melting point of 249 to 250 °C.

For `COc1ccc(F)c(F)c1C(=O)c1cnc(NC2CCN(C=O)CC2)nc1N` [Example 284, 4-[4-Amino-5-(2,3-difluoro-6-methoxy-benzoyl)-pyrimidin-2-ylamino]-piperidine-1-carbaldehyde], the melting point is 263 °C (dec.).

`COc1ccc(F)c(F)c1C(=O)c1cnc(NC2CCN(S(N)(=O)=O)CC2)nc1N` [Example 285, 4-[4-Amino-5-(2,3-difluoro-6-methoxy-benzoyl)-pyrimidin-2-ylamino]-piperidine-1-sulfonic acid amide] displayed a melting point of 217 to 218 °C.

Take `COc1ccc(F)c(F)c1C(=O)c1cnc(NC2CCN(S(=O)(=O)NC(C)=O)CC2)nc1N` [Example 286, 4-[4-Amino-5-(2,3-difluoro-6-methoxy-benzoyl)-pyrimidin-2-ylamino]-piperidine-1-sulfonic acid acetyl-amide]: the melting point was 153 °C (dec.).

Molecule `COc1ccc(F)c(F)c1C(=O)c1cnc(Cl)nc1Cl` [Example 288, (2,4-Dichloro-pyrimidin-5-yl)-(2,3-difluoro-6-methoxy-phenyl)-methanone] had a melting point of 137 to 139 °C.

Regarding `COc1ccc(F)c(F)c1C(=O)c1cnc(Cl)nc1N` [Example 289, (4-Amino-2-chloro-pyrimidin-5-yl)-(2,3-difluoro-6-methoxy-phenyl)-methanone], the melting point was 238 to 239 °C (dec.).

In the case of `COc1ccc(F)c(F)c1C(=O)c1cnc(N[C@H]2CC[C@H](NCCO)CC2)nc1N` [Example 290, Trans-[4-Amino-2-[4-(2-hydroxy-ethylamino)-cyclohexylamino]-pyrimidin-5-yl}-(2,3-difluoro-6-methoxy-phenyl)-methanone], the IC90 in the series on HCT116 cells came out at 179 nM. Further, the values for the IC50 on human cyclin E-CDK2 (setting [1]), on human cyclin B-CDK1 and against human cyclin D1-CDK4 were 5 nM, 18 nM and 20 nM, respectively.
